target: human PDHK2 (hPDHK2) (Homo sapiens (Human), UniProt Q15119); assay: Inhibitory action of PDHK activity in vitro (kinase reaction, residual PDH activity measured); assay type: biochemical; conditions: PDHK inhibitory activity, class symbol of IC50

O=C(c1ccc2c(c1)C(O)(C(F)(F)F)c1ccccc1-2)N1CC(C(=O)N2CCCCC2)C1 (stereo not shown) [compound 202] and O=C(c1ccc2c(c1)C(O)(C(F)(F)F)c1ccccc1-2)N1CC(C(=O)N2CCC(O)CC2)C1 (stereo not shown) [compound 203] fall in the same range of IC50: 0.1 to 1 µM for the first, 0.1 to 1 µM for the second.

First: Cc1ccncc1-c1cccc2c1-c1ccccc1C2(O)C(F)(F)F (stereo not shown) [compound 204]
Second: N#Cc1cccc(-c2ccc3c(c2)C(O)(C(F)(F)F)c2ccccc2-3)c1 (stereo not shown) [compound 214]
The IC50 of the first is higher: greater than 1 µM for the first, 0.1 to 1 µM for the second.

Oc1ccc(-c2ccc3c(c2)C(O)(C(F)(F)F)c2ccccc2-3)cc1 (stereo not shown) [compound 205] and N#Cc1ccc(-c2ccc3c(c2)C(O)(C(F)(F)F)c2ccccc2-3)cc1 (stereo not shown) [compound 224] fall in the same range of IC50: 0.1 to 1 µM for the first, 0.1 to 1 µM for the second.

COC(=O)C1CCN(C(=O)c2ccc3c(c2)C(O)(C(F)(F)F)c2ccccc2-3)C1 (stereo not shown) [compound 206] and CNC(=O)C1CCN(C(=O)c2ccc3c(c2)C(O)(C(F)(F)F)c2ccccc2-3)C1 (stereo not shown) [compound 227] cannot be ordered by IC50: greater than 1 µM for the first, greater than 1 µM for the second.

First: CCC(=O)N1CCN(c2ccc3c(c2)C(O)(C(F)(F)F)c2ccccc2-3)CC1 (stereo not shown) [compound 207]
Second: CCOC(=O)N1CCN(c2ccc3c(c2)C(O)(C(F)(F)F)c2ccccc2-3)CC1 (stereo not shown) [compound 211]
The IC50 of the first is lower: 0.1 to 1 µM for the first, greater than 1 µM for the second. The first is the more potent here.

CC(C)C(=O)N1CCN(c2ccc3c(c2)C(O)(C(F)(F)F)c2ccccc2-3)CC1 (stereo not shown) [compound 208] and CC(C)OC(=O)N1CCN(c2ccc3c(c2)C(O)(C(F)(F)F)c2ccccc2-3)CC1 (stereo not shown) [compound 212] fall in the same range of IC50: 0.1 to 1 µM for the first, 0.1 to 1 µM for the second.

Compared with CC(C)(C)C(=O)N1CCN(c2ccc3c(c2)C(O)(C(F)(F)F)c2ccccc2-3)CC1 (stereo not shown) [compound 209], COC(=O)N1CCN(c2ccc3c(c2)C(O)(C(F)(F)F)c2ccccc2-3)CC1 (stereo not shown) [compound 210] is higher in IC50: 0.1 to 1 µM for the first, greater than 1 µM for the second. The first is the more potent here.

O=C(c1cnc2c(c1)C(O)(C(F)(F)F)c1ccccc1-2)N1CCC1 (stereo not shown) [compound 213] and COc1nc2c(cc1C(=O)N1CCC1)C(O)(C(F)(F)F)c1ccccc1-2 (stereo not shown) [compound 235] fall in the same range of IC50: 0.1 to 1 µM for the first, 0.1 to 1 µM for the second.

First: O=C(c1ccc2c(c1)C(O)(C(F)(F)F)c1ccccc1-2)N1CCC(O)C1 (stereo not shown) [compound 215]
Second: O=C(c1ccc2c(c1)C(O)(C(F)(F)F)c1ccccc1-2)N1CCC(CO)C1 (stereo not shown) [compound 225]
The IC50 of the first is higher: greater than 1 µM for the first, 0.1 to 1 µM for the second. The second is the more potent here.

First: CN(C)C1CCN(C(=O)c2ccc3c(c2)C(O)(C(F)(F)F)c2ccccc2-3)C1 (stereo not shown) [compound 216]
Second: CN(C)C(=O)C1CCN(C(=O)c2ccc3c(c2)C(O)(C(F)(F)F)c2ccccc2-3)C1 (stereo not shown) [compound 229]
The IC50 of the first is higher: greater than 1 µM for the first, 0.1 to 1 µM for the second.

O=C(O)C1CCN(C(=O)c2ccc3c(c2)C(O)(C(F)(F)F)c2ccccc2-3)C1 (stereo not shown) [compound 217] and NC(=O)C1CCN(C(=O)c2ccc3c(c2)C(O)(C(F)(F)F)c2ccccc2-3)C1 (stereo not shown) [compound 226] cannot be ordered by IC50: greater than 1 µM for the first, greater than 1 µM for the second.

COC(=O)C1CCN(c2ccc3c(c2)C(O)(C(F)(F)F)c2ccccc2-3)CC1 (stereo not shown) [compound 218] and CCOC(=O)C1CCN(c2ccc3c(c2)C(O)(C(F)(F)F)c2ccccc2-3)CC1 (stereo not shown) [compound 223] cannot be ordered by IC50: greater than 1 µM for the first, greater than 1 µM for the second.

First: COC(=O)c1cccc2c1-c1ccc(F)cc1C2(O)C(F)(F)F (stereo not shown) [compound 219]
Second: COC(=O)c1cccc2c1-c1cc(F)ccc1C2(O)C(F)(F)F (stereo not shown) [compound 220]
The IC50 of the first is higher: greater than 1 µM for the first, 0.1 to 1 µM for the second. The second is the more potent here.

Compared with COC(=O)c1ccc(F)c2c1-c1ccccc1C2(O)C(F)(F)F (stereo not shown) [compound 221], COC(=O)c1ccc(-c2ccc3c(c2)C(O)(C(F)(F)F)c2ccccc2-3)cc1Cl (stereo not shown) [compound 236] is lower in IC50: greater than 1 µM for the first, 0.1 to 1 µM for the second. The second is the more potent here.

O=C(O)C1CCN(c2ccc3c(c2)C(O)(C(F)(F)F)c2ccccc2-3)CC1 (stereo not shown) [compound 222] and NC(=O)C1CCN(c2ccc3c(c2)C(O)(C(F)(F)F)c2ccccc2-3)CC1 (stereo not shown) [compound 230] cannot be ordered by IC50: greater than 1 µM for the first, greater than 1 µM for the second.

CNC1CCN(C(=O)c2ccc3c(c2)C(O)(C(F)(F)F)c2ccccc2-3)C1 (stereo not shown) [compound 228] and CNC(=O)C1CCN(c2ccc3c(c2)C(O)(C(F)(F)F)c2ccccc2-3)CC1 (stereo not shown) [compound 231] cannot be ordered by IC50: greater than 1 µM for the first, greater than 1 µM for the second.

Going from CN(C)C(=O)C1CCN(c2ccc3c(c2)C(O)(C(F)(F)F)c2ccccc2-3)CC1 (stereo not shown) [compound 232] to O=C(O)c1ccc(-c2cc(Cl)c3c(c2)C(O)(C(F)(F)F)c2ccccc2-3)cc1 (stereo not shown) [compound 234], the IC50 falls from greater than 1 µM to less than 0.1 µM.

CCOC(=O)c1ccc(-c2cc(Cl)c3c(c2)C(O)(C(F)(F)F)c2ccccc2-3)cc1 (stereo not shown) [compound 233] gave an IC50 of 0.1 to 1 µM.

same assay, conditions: read-out: PDHK inhibitory activity IC50

First: O=C(c1ccc2c(c1)C(O)(C(F)(F)F)c1ccccc1-2)N1CC(C(=O)N2CCCCC2)C1 (stereo not shown) [compound 202]
Second: O=C(c1ccc2c(c1)C(O)(C(F)(F)F)c1ccccc1-2)N1CC(C(=O)N2CCC(O)CC2)C1 (stereo not shown) [compound 203]
The IC50 of the first is 1.7-fold lower: 0.247 µM for the first, 0.423 µM for the second. The first is the more potent here.

Going from Cc1ccncc1-c1cccc2c1-c1ccccc1C2(O)C(F)(F)F (stereo not shown) [compound 204] to N#Cc1cccc(-c2ccc3c(c2)C(O)(C(F)(F)F)c2ccccc2-3)c1 (stereo not shown) [compound 214], the IC50 falls from greater than 10 µM to 0.345 µM.

First: Oc1ccc(-c2ccc3c(c2)C(O)(C(F)(F)F)c2ccccc2-3)cc1 (stereo not shown) [compound 205]
Second: N#Cc1ccc(-c2ccc3c(c2)C(O)(C(F)(F)F)c2ccccc2-3)cc1 (stereo not shown) [compound 224]
The IC50 of the first is 3.3-fold higher: 0.707 µM for the first, 0.214 µM for the second.

Compared with COC(=O)C1CCN(C(=O)c2ccc3c(c2)C(O)(C(F)(F)F)c2ccccc2-3)C1 (stereo not shown) [compound 206], CNC(=O)C1CCN(C(=O)c2ccc3c(c2)C(O)(C(F)(F)F)c2ccccc2-3)C1 (stereo not shown) [compound 227] is 2.1-fold lower in IC50: 2.24 µM for the first, 1.05 µM for the second. The second is the more potent here.

CCC(=O)N1CCN(c2ccc3c(c2)C(O)(C(F)(F)F)c2ccccc2-3)CC1 (stereo not shown) [compound 207] and CCOC(=O)N1CCN(c2ccc3c(c2)C(O)(C(F)(F)F)c2ccccc2-3)CC1 (stereo not shown) [compound 211] are within 1.5-fold of each other in IC50: 0.998 µM for the first, 1.01 µM for the second.

CC(C)C(=O)N1CCN(c2ccc3c(c2)C(O)(C(F)(F)F)c2ccccc2-3)CC1 (stereo not shown) [compound 208] and CC(C)OC(=O)N1CCN(c2ccc3c(c2)C(O)(C(F)(F)F)c2ccccc2-3)CC1 (stereo not shown) [compound 212] are within 1.5-fold of each other in IC50: 0.677 µM for the first, 0.685 µM for the second.

Compared with CC(C)(C)C(=O)N1CCN(c2ccc3c(c2)C(O)(C(F)(F)F)c2ccccc2-3)CC1 (stereo not shown) [compound 209], COC(=O)N1CCN(c2ccc3c(c2)C(O)(C(F)(F)F)c2ccccc2-3)CC1 (stereo not shown) [compound 210] is 4.7-fold higher in IC50: 0.281 µM for the first, 1.33 µM for the second. The first is the more potent here.

First: O=C(c1cnc2c(c1)C(O)(C(F)(F)F)c1ccccc1-2)N1CCC1 (stereo not shown) [compound 213]
Second: COc1nc2c(cc1C(=O)N1CCC1)C(O)(C(F)(F)F)c1ccccc1-2 (stereo not shown) [compound 235]
The IC50 of the first is 4.6-fold lower: 0.173 µM for the first, 0.803 µM for the second.

First: O=C(c1ccc2c(c1)C(O)(C(F)(F)F)c1ccccc1-2)N1CCC(O)C1 (stereo not shown) [compound 215]
Second: O=C(c1ccc2c(c1)C(O)(C(F)(F)F)c1ccccc1-2)N1CCC(CO)C1 (stereo not shown) [compound 225]
The IC50 of the first is 7.4-fold higher: 4.6 µM for the first, 0.619 µM for the second. The second is the more potent here.

Going from CN(C)C1CCN(C(=O)c2ccc3c(c2)C(O)(C(F)(F)F)c2ccccc2-3)C1 (stereo not shown) [compound 216] to CN(C)C(=O)C1CCN(C(=O)c2ccc3c(c2)C(O)(C(F)(F)F)c2ccccc2-3)C1 (stereo not shown) [compound 229], the IC50 falls from 2.56 µM to 0.552 µM (4.6-fold).

First: O=C(O)C1CCN(C(=O)c2ccc3c(c2)C(O)(C(F)(F)F)c2ccccc2-3)C1 (stereo not shown) [compound 217]
Second: NC(=O)C1CCN(C(=O)c2ccc3c(c2)C(O)(C(F)(F)F)c2ccccc2-3)C1 (stereo not shown) [compound 226]
The IC50 of the first is 4.7-fold higher: 5.33 µM for the first, 1.14 µM for the second. The second is the more potent here.

COC(=O)C1CCN(c2ccc3c(c2)C(O)(C(F)(F)F)c2ccccc2-3)CC1 (stereo not shown) [compound 218] and CCOC(=O)C1CCN(c2ccc3c(c2)C(O)(C(F)(F)F)c2ccccc2-3)CC1 (stereo not shown) [compound 223] are within 1.5-fold of each other in IC50: 1.84 µM for the first, 2.33 µM for the second.

Compared with COC(=O)c1cccc2c1-c1ccc(F)cc1C2(O)C(F)(F)F (stereo not shown) [compound 219], COC(=O)c1cccc2c1-c1cc(F)ccc1C2(O)C(F)(F)F (stereo not shown) [compound 220] is lower in IC50: greater than 10 µM for the first, 0.488 µM for the second. The second is the more potent here.

Compared with COC(=O)c1ccc(F)c2c1-c1ccccc1C2(O)C(F)(F)F (stereo not shown) [compound 221], COC(=O)c1ccc(-c2ccc3c(c2)C(O)(C(F)(F)F)c2ccccc2-3)cc1Cl (stereo not shown) [compound 236] is lower in IC50: greater than 10 µM for the first, 0.355 µM for the second.

O=C(O)C1CCN(c2ccc3c(c2)C(O)(C(F)(F)F)c2ccccc2-3)CC1 (stereo not shown) [compound 222] and NC(=O)C1CCN(c2ccc3c(c2)C(O)(C(F)(F)F)c2ccccc2-3)CC1 (stereo not shown) [compound 230] are within 1.5-fold of each other in IC50: 5.39 µM for the first, 3.71 µM for the second.

Compared with CNC1CCN(C(=O)c2ccc3c(c2)C(O)(C(F)(F)F)c2ccccc2-3)C1 (stereo not shown) [compound 228], CNC(=O)C1CCN(c2ccc3c(c2)C(O)(C(F)(F)F)c2ccccc2-3)CC1 (stereo not shown) [compound 231] is 1.6-fold higher in IC50: 2.19 µM for the first, 3.61 µM for the second. The first is the more potent here.

Going from CN(C)C(=O)C1CCN(c2ccc3c(c2)C(O)(C(F)(F)F)c2ccccc2-3)CC1 (stereo not shown) [compound 232] to O=C(O)c1ccc(-c2cc(Cl)c3c(c2)C(O)(C(F)(F)F)c2ccccc2-3)cc1 (stereo not shown) [compound 234], the IC50 falls from 1.99 µM to 0.058 µM (34-fold). The second is the more potent here.

CCOC(=O)c1ccc(-c2cc(Cl)c3c(c2)C(O)(C(F)(F)F)c2ccccc2-3)cc1 (stereo not shown) [compound 233] gave an IC50 of 0.142 µM.

Source: patent US8871934B2, “Fluorene compound and pharmaceutical use thereof” (Japan Tobacco Inc., priority 2008, dated 2014)
